Series [1] in a line: Plasma concentration (Cmax) of gabapentin in the rat.

Usually Cmax stands for the peak of the concentration-time curve. A word on the melting point: it is the temperature of the solid-liquid transition.

Structures are written as SMILES. Structures can show the parent of a compound that is named as a salt.

In series [1], `NCC1(CC(=O)O)CCCCC1` [gabapentin, 1-(aminomethyl)-cyclohexylacetic acid] registered a maximum concentration (Cmax) of 520 to 10500 ng/mL.
For the compound `CCC[C@@H](C)C[C@H](N)CC(=O)O.Cl`, the melting point lay within 142.5 to 142.7 °C.
On the same count and under the same terms, then `CCCC[C@@H](C)C[C@H](N)CC(=O)O` (as salt: hydrochloride), with 142.5 to 143.3 °C.

The record behind these values is US20100081718A1, “CO[…]-2-DELTA LIGANDS” (Pfizer Inc, priority 2003, published 2010).
